Experimental data published in patent US12435061B2 (priority 2020, dated 2025).
≈ marks a conversion by molar mass, not a printed value.

Columns and labels:
[1] = molecular target: T1, hTRPV3 (Homo sapiens (Human), UniProt Q8NET8); assay: hTRPV3 HAMA IC50 assay (Hamamatsu FDSS6000 calcium flux, TRex-293 cells); settings: read-out: hTRPV3 HAMA IC50; 2-APB stimulated calcium flux
Method: IC50s were calculated using CBIS from ChemInnovation (San Diego).

[2] = molecular target: T1, hTRPV3; assay: FLIPR Assay (calcium flux, HEK293 cells stably expressing TRPV3); type: cell-based
Method: In Tables 3 and 4, Phase 1 refers to Phase 1 current for human (h) TRPV3 or rat (r) TRPV3, and Phase 2 refers to Phase 2 current for human (h) TRPV3 or rat (r) TRPV3. The hTRPV3 and rTRPV3 assays were performed as described herein. hERG refers to the inhibition the human ERG (hERG) channel. NaV1.5, refers to the pore forming aL-subunit of the voltage-dependent cardiac Na(+) channel and is an integral membrane protein involved in the initiation and conduction of action potentials. hTRPV3 HAMA IC50 refers to the IC50 of TRPV3 cells stably expressed in TRex-293 cells. Solubility Ringer refers to the compounds' solubility in Ringer's solution. LM T1/2 refers to liver microsome half-lives in either rat or human liver microsomes. FLIPR IC50 refers to the IC50 of the test compounds against recombinant hTRPV3 cells.
The cells were treated with IBSS and 20 mM HEPES adjusted to pH 7.4 in the presence of the fluorescent calcium indicator e.g. Fluo-4AM (5 uM) and the plates were incubated at 37° C. and […] for approximately 1 hour and cooled to room temperature. […] Relative Fluorescence Units (RFU) were measured for each response for signal maximum minus minimum during approximately 90 seconds after addition.

[3] = molecular target: human hERG channels (Homo sapiens (Human), UniProt Q12809); assay: hERG assay (patch clamp, CHO cells); type: cell-based; settings: (PL); read-out: hERG (nM) (PL)
human hERG channels, sequence (Q12809 whole entry): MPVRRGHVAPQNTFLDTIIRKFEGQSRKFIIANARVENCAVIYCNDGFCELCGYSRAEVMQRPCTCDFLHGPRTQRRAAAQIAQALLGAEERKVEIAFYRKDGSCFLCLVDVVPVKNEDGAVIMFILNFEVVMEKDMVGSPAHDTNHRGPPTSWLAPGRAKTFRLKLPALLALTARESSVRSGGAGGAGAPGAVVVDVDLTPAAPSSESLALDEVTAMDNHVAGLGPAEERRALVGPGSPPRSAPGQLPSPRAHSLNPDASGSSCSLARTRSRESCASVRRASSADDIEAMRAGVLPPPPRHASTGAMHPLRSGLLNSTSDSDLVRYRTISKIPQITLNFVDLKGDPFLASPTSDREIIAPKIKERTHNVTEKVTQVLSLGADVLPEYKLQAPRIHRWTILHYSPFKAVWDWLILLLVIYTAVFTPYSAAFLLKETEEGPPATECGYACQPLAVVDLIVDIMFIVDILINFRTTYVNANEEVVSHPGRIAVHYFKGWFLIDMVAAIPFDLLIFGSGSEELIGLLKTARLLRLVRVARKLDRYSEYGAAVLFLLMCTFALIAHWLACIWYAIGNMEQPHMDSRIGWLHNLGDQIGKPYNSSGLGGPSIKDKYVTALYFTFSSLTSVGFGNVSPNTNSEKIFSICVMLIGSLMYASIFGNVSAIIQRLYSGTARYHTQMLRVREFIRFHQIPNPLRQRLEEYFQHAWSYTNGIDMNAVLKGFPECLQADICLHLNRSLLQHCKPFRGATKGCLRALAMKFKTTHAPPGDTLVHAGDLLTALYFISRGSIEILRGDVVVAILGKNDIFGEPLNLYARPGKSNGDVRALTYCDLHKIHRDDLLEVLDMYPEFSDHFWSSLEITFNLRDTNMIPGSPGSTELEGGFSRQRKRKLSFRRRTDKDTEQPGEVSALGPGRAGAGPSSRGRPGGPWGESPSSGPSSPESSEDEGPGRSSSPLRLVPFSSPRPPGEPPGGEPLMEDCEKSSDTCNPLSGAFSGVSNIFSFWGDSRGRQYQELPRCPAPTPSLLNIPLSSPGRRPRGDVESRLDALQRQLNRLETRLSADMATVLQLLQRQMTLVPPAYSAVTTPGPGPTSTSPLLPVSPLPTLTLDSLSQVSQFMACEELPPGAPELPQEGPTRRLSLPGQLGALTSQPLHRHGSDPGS
Method: hERG assay: Briefly, cells from a stable CHO cell line expressing human hERG channels were plated onto glass coverslips and used in patch clamp assays on the same day. After seal formation and break-in to whole-cell configuration, voltage steps were applied as follows: from the holding potential of −90 mV, a 2 second long step to +40 mV was applied, followed by a 1.5 second step to −50 mV. These steps were applied once every 5 seconds. The hERG current was measured at the peak of the outward tail current at −50 mV. The pipette solution was potassium aspartate based and the external solution was normal Ringer's.
All currents were recorded in whole-cell configuration using an Axopatch 200B controlled by pClamp 10 software (Molecular Devices). In each cell, when the current stabilized, the compound was perfused locally onto the cell. Two to three concentrations of the test compound were applied to each cell. At the end of compound testing, 10 μM verapamil was applied to completely block hERG currents and assess leak current.
Data were analyzed by computing the degree of current block after compound addition compared with the unblocked current amplitude. The unblocked current was predicted from the interpolation between the current amplitude prior to compound addition and after compound washout. The resulting percent block at each concentration was used to make a concentration-response plot and fitted to the Hill equation: percent block=minimum block+(maximum block-minimum block)/(1+10^(Hill slope*(log IC50−concentration))).

[4] = molecular target: T1, hTRPV3; assay: Whole-cell patch clamp, hTRPV3 Phase 1 / Phase 2 currents; type: cell-based; settings: Phase 1 current
Method in brief: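 Currents are activated by 20 μM 2-APB or by perfusate at 28 °C or warmer, in Ringer's solution, and quantified at ±80 mV.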

[5] = Metabolic Stability assay, rat liver microsomes; type: in vitro ADME; settings: read-out: LM T1/2 (min) rat
Method in brief: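 Reactions in human or rat liver microsomes at 37 °C were started with an NADPH-regenerating system, using 1 μM compound initially. Samples were taken at 0, 7, 15, 30 and 60 min, quenched in ice-cold acetonitrile/MeOH/H2O, and quantified by HPLC/MS/MS.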

[6] = Aqueous solubility assay in Normal Ringer Solution; settings: Normal Ringer Solution, saline or isotonic, kinetic from dmso stock
Method: Following vortex and incubation for a sufficient time (e.g. 40 minutes at room temperature), solutions were filtered, quenched with acetonitrile, and analyzed by Liquid Chromotography. Solubility Limits were determined by comparison to a standard curve.

[7] = human TRPV3, read-out: hTRPV3 (nM) Phase 1
[8] = inward, whole-cell patch clamp, read-out: hTRPV3 Patch P1 Inwd

T1 sequence (Q8NET8 whole entry): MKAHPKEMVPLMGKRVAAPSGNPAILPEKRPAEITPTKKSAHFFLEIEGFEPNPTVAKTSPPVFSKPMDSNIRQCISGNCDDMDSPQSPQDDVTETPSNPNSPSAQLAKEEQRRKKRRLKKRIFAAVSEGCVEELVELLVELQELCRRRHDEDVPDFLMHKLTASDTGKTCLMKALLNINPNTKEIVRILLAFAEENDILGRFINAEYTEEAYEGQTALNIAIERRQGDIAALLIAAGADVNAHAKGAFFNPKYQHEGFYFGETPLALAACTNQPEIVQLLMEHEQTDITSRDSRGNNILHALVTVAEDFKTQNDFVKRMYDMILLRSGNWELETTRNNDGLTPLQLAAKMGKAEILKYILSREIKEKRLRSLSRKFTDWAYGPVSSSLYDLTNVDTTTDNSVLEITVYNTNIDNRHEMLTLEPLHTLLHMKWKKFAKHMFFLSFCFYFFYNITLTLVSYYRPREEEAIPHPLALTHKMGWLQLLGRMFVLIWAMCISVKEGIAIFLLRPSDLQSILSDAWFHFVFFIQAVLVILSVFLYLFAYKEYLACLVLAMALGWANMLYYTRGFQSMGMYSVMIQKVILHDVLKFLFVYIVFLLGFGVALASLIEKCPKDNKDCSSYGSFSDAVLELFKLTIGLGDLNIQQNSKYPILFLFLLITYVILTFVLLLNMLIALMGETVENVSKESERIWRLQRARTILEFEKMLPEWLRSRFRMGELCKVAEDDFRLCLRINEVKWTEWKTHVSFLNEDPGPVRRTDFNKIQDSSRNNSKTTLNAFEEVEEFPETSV

SMILES	IC50 ([2]; read-out: FLIPR IC50) [µM]	IC50 [3] [nM]	IC50 [4, 7] [nM]	IC50 [4, 8] [nM]	half-life at 1 μM [5] [min]	solubility at 40 min [6] [µM]	also measured
Cc1nc(C(=O)N2CCC(c3ccc(-c4ccccc4C4CC4)cc3CO)C2)no1 (stereo not shown) [Compound 2-128]	1.85						IC50 [1]: 479 nM
CCc1c(C)cccc1-c1ccc(C2CCN(C(=O)c3ccc(F)cn3)C2)c(CO)c1 (stereo not shown) [Compound 2-64, (3-(2′-ethyl-3-(hydroxymethyl)-3′-methylbiphenyl-4-yl)pyrrolidin-1-yl)(5-fluoropyridin-2-yl)methanone]		10100	18	10 to 100	6.38	> 15.7	
CCc1ccccc1-c1ccc(C2CCN(C(=O)c3ccc(F)cn3)C2)c(CO)c1 (stereo not shown) [Compound 2-28, (3-(2′-ethyl-3-(hydroxymethyl)biphenyl-4-yl)pyrrolidin-1-yl)(5-fluoropyridin-2-yl)methanone]		13700	19.6	10 to 100	18.4	> 15	
COc1ncc(C(=O)N2CCC(c3ccc(-c4ccccc4C4CC4)cc3CO)C2)nc1C (stereo not shown) [Compound 2-126]	1.18						IC50 [1]: 84 nM
CC(C)c1ccccc1Oc1ccc(C2CCN(C(=O)c3ncccc3Cl)C2)c(CO)c1 (stereo not shown) [Compound 2-12, (3-chloropyridin-2-yl)(3-(2-(hydroxymethyl)-4-(2-isopropylphenoxy)phenyl)pyrrolidin-1-yl)methanone]		12600	101	10 to 100	7.55	> 8	
CC(C)c1ccccc1-c1ccc(C2CCN(C(=O)c3ccccn3)C2)c(CO)c1 (stereo not shown) [Compound 2-42]		18300	22.7	10 to 100	11.7	> 19.7	
CCc1ccccc1-c1ccc(C2CCN(C(=O)c3ccc(C(F)(F)F)cn3)C2)c(CO)c1 (stereo not shown) [Compound 2-47, (3-(2′-ethyl-3-(hydroxymethyl)biphenyl-4-yl)pyrrolidin-1-yl)(5-(trifluoromethyl)pyridin-2-yl)methanone]		17200	18.4	10 to 100	28.1	~5.6 (≈ 2.55 µg/mL)	
O=C(c1ncon1)N1CCC(c2ccc(-c3ccccc3C3CC3)cc2CO)C1 (stereo not shown) [Compound 2-127]	1.9						IC50 [1]: 130 nM
Cc1nc(C(=O)N2CCC(c3ccc(-c4ccccc4C4CC4)cc3CO)C2)ccc1O (stereo not shown) [Compound 2-143]						0.0183 (≈ 0.00784 µg/mL)	IC50 [1]: 10.3 nM; IC50 ([2]; FLIPR IC50 (uM)): 0.86 µM
O=C(c1ccc(F)cn1)N1CCC(c2ccc(-c3ccccc3)nc2CO)C1 (stereo not shown) [Compound 2-80]		5520	163	100 to 1000			
COc1cncc(C(=O)N2CCC(c3ccc(-c4ccccc4C4CC4)cc3CO)C2)n1 (stereo not shown) [Compound 2.151]	0.78						
CC(C)c1ccccc1-c1ccc(C2CCN(Cc3ccc(F)cn3)C2)c(CO)c1 (stereo not shown) [Compound 2-95]		< 1000	582	100 to 1000			
CC(C)c1ccccc1Oc1ccc(C2CCN(Cc3ccccn3)C2)c(CO)c1 (stereo not shown) [Compound 2-87, (5-(2-isopropylphenoxy)-2-(1-(pyridin-2-ylmethyl)pyrrolidin-3-yl)phenyl)methanol]		260	699	100 to 1000	2.46		
COc1cncc(C(=O)N2CCC(c3ccc(-c4ccccc4C4CC4)cc3CO)C2)n1 (stereo not shown) [Compound 2-125]	1.79						IC50 [1]: 99.6 nM
COc1ccnc(C(=O)N2CCC(c3ccc(-c4ccccc4C4CC4)cc3CO)C2)c1 (stereo not shown) [Compound 2-141]	4.49						
Cc1nnc(C(=O)N2CCC(c3ccc(-c4ccccc4C4CC4)cc3CO)C2)cc1O (stereo not shown) [Compound 2-142]	> 10						
Cc1coc(C(=O)N2CCC(c3ccc(-c4ccccc4C4CC4)cc3CO)C2)n1 (stereo not shown) [Compound 2.146]	5.95						
Cc1nc(C(=O)N2CCC(c3ccc(-c4ccccc4C4CC4)cc3CO)C2)ccc1CO (stereo not shown) [Compound 2-144]	3.27						
O=C(c1ccc(CO)cn1)N1CCC(c2ccc(-c3ccccc3C3CC3)cc2CO)C1 (stereo not shown) [Compound 2-134]	9.5						
